Reference: the Deep4Chem optical property database

Test: solvent given as SMILES

CC(C)(C)c1ccc2c(c1)c1cc(C(C)(C)C)ccc1n2-c1ccc(N(c2ccc(-c3ccc(-c4ccc(-c5ccc(-c6ccc(-c7ccc(N(c8ccc(-n9c%10ccc(C(C)(C)C)cc%10c%10cc(C(C)(C)C)ccc%109)cc8)c8ccc(-n9c%10ccc(C(C)(C)C)cc%10c%10cc(C(C)(C)C)ccc%109)cc8)cc7)s6)s5)s4)s3)cc2)c2ccc(-n3c4ccc(C(C)(C)C)cc4c4cc(C(C)(C)C)ccc43)cc2)cc1
emission maximum (in ClCCl): 529 nm

CC(=O)OCCOCCN1C(=O)c2cc(NCCOCCO)c3c4c(cc(NCCOCCO)c(c24)C1=O)C(=O)N(CCOCCOC(C)=O)C3=O
emission maximum (in CO): 641 nm
emission maximum (in ClC(Cl)Cl): 640 nm
emission maximum (in O): 657 nm

NCCCCCCCCCCCCN1C(=O)c2ccc3c4ccc5c6c(ccc(c7ccc(c2c37)C1=O)c64)C(=O)N(CCCCCCCCCCCCN)C5=O
emission maximum (in CN(C)C=O): 537 nm

O=c1c(Nc2ccccc2)c([O-])c1=[NH+]c1ccccc1
emission maximum (in C1CCOC1): 477 nm
emission maximum (in CC#N): 496 nm
emission maximum (in CC(C)=O): 490 nm
emission maximum (in CCO): 492 nm
emission maximum (in CCOCC): 484 nm
emission maximum (in CN1CCCC1=O): 495 nm
emission maximum (in CN(C)C=O): 502 nm
emission maximum (in CO): 498 nm
emission maximum (in CS(C)=O): 504 nm
emission maximum (in O): 504 nm

CC(C)(C)c1ccc(-c2nc(-c3ccc(C(C)(C)C)cc3)nc(-c3cc(C#N)c(-n4c5ccccc5c5c6oc7ccccc7c6ccc54)c(C#N)c3)n2)cc1
emission maximum (in C1CCOC1): 504.66 nm

CCC1=C(C)C2=Cc3c4ccccc4c4n3[B-](c3ccc5cc6ccccc6cc5c3)(Oc3ccccc3-4)[N+]2=C1C (stereo unspecified)
emission maximum (in CC#N): 635 nm
emission maximum (in CCCCCC): 636 nm
emission maximum (in Cc1ccccc1): 641 nm
emission maximum (in ClCCl): 639 nm

CCCCN(CCCC)c1ccc(/C=C/c2ccc3nc(-c4ccccc4)c(/C=C/c4ccc(N(C)C)cc4)nc3c2)cc1
emission maximum (in C1COCCO1): 540 nm
emission maximum (in CC#N): 650 nm
emission maximum (in ClCCl): 627 nm

c1ccc(CSc2c3ccc(=[N+]4CCCCC4)cc-3oc3cc(N4CCCCC4)ccc23)cc1
emission maximum (in ClCCl): 619 nm

c1ccc(N2N=C(c3cccc4ccccc34)CC2c2ccc3ccc4cccc5ccc2c3c45)cc1 (stereo unspecified)
emission maximum (in ClCCl): 455 nm

Cc1ccc(-c2c3nc(c(-c4ccc(C)cc4)c4ccc([nH]4)c(-c4ccc(C)cc4)c4nc(c(-c5ccc(C)cc5)c5ccc2[nH]5)C=C4N2CCOCC2)C=C3)cc1
emission maximum (in CS(C)=O): 666 nm

O=S1(=O)Nc2ccc3c(c2-c2ccccc21)-c1ccccc1S(=O)(=O)N3
emission maximum (in ClCCl): 425 nm

N#Cc1cc(/C=C/c2ccc(N(c3ccccc3)c3ccccc3)cc2)ccc1/C=C/c1ccc(/C=C/c2ccc(N(c3ccccc3)c3ccccc3)cc2)cc1C#N
emission maximum (in ClCCl): 614 nm

CC1=NN(c2ccccc2)C(=O)/C1=C/c1cn(-c2ccccc2)nc1-c1ccccc1
emission maximum (in C1CCOC1): 429 nm
emission maximum (in C1COCCO1): 407 nm
emission maximum (in CCO): 427 nm
emission maximum (in CCOC(C)=O): 422 nm
emission maximum (in CN(C)C=O): 435 nm
emission maximum (in CO): 430 nm
emission maximum (in CS(C)=O): 437 nm
emission maximum (in Cc1ccccc1): 416 nm
emission maximum (in ClC(Cl)Cl): 432 nm
emission maximum (in ClCCl): 436 nm

c1ccc(N(c2ccccc2)c2ccc(-c3nc4ccccc4n3-c3ccccc3)cc2)cc1
emission maximum (in CC#N): 444 nm

CC(=O)c1ccc(-c2cc3c(ccc4sccc43)s2)cc1
emission maximum (in ClCCl): 430 nm

c1ccc2c(-c3nc4sc5ccccc5c4s3)cccc2c1
emission maximum (in CS(C)=O): 447 nm

Cc1c(C(=O)c2ccccc2Cl)c2ccc3cccc4c5cccc6ccc1c(c65)c2c34
emission maximum (in ClCCl): 482 nm

CCCCc1ccc(-n2c3c4ccc(C(F)(F)F)cc4nc(-c4ccc(C#N)cc4)c3c3c2c2c(-c4ccc(C#N)cc4)nc4cc(C(F)(F)F)ccc4c2n3-c2ccc(CCCC)cc2)cc1
emission maximum (in ClC(Cl)Cl): 499 nm

Cc1cc(-c2cccc3ccccc23)cc(C)[o+]1
emission maximum (in ClCCl): 554 nm

CCCC1=Cc2nc1ccc1[nH]c(cc1CCC)c1nc(c(O)cc3[nH]c2cc3CCC)C(CCC)=C1
emission maximum (in Cc1ccccc1): 683 nm

[O-]c1ccc2ccccc2c1
emission maximum (in O): 414 nm

CN(C)c1ccc(-c2cccc3nsnc23)cc1
emission maximum (in ClCCl): 635 nm

Cc1cc(C)c(-c2nnc(-c3ccc(-n4c5ccccc5c5ccccc54)c(C)c3)o2)c(C)c1
emission maximum (in CCO): 440 nm
emission maximum (in Cc1ccccc1): 377 nm

c1ccc(-c2nc(-c3ccccc3)nc(-c3ccc(-n4c5ccccc5c5cc6c7ccccc7n7c8ccccc8c(c54)c67)cc3)n2)cc1
emission maximum (in Cc1ccccc1): 450 nm
emission maximum (in O=P(c1ccccc1)(c1ccccc1)c1ccc2oc3ccc(P(=O)(c4ccccc4)c4ccccc4)cc3c2c1): 460 nm

CN(C)c1ccc2c(c1)-c1ccccc1C2=O
emission maximum (in C1CCCCC1): 491 nm
emission maximum (in CC#N): 557 nm
emission maximum (in CCO): 592 nm
emission maximum (in c1ccccc1): 526 nm

O=C(c1ccc(C(=C(c2ccccc2)c2ccccc2)c2ccccc2)cc1)c1ccc(-n2c3ccccc3c3ccccc32)cc1
emission maximum (in C1CCOC1): 496 nm

CC(C)[Si](C#Cc1c2nsnc2c(C#C[Si](C(C)C)(C(C)C)C(C)C)c2nc3c(nc12)Cc1ccccc1-3)(C(C)C)C(C)C
emission maximum (in CCCCCC): 551 nm

N#C/C=C/c1ccc2ccc3cccc4ccc1c2c34
emission maximum (in C1CCOC1): 425 nm
emission maximum (in C1COCCO1): 421.5 nm
emission maximum (in C=CC#N): 439.5 nm
emission maximum (in CC#N): 440.5 nm
emission maximum (in CC(C)=O): 433 nm
emission maximum (in CCCCCC): 409.5 nm
emission maximum (in CCOC(C)=O): 423 nm
emission maximum (in CO): 443 nm
emission maximum (in Cc1ccccc1): 423 nm
emission maximum (in ClCCl): 434 nm

CC1(C)c2ccccc2-n2c(-c3ccc(-n4c5ccc(-n6c7ccccc7c7ccccc76)cc5c5cc(-n6c7ccccc7c7ccccc76)ccc54)cc3)nc3cccc1c32
emission maximum (in Cc1ccccc1): 401 nm
emission maximum (in O=P(c1ccccc1)(c1ccccc1)c1ccccc1Oc1ccccc1P(=O)(c1ccccc1)c1ccccc1): 409 nm

C(S/C=C/c1ccc(-c2ccc(/C=C/SC=C(c3ccccc3)c3ccccc3)cc2)cc1)=C(c1ccccc1)c1ccccc1
emission maximum (in ClCCl): 441 nm

O=C(O)c1ccccc1-c1nc(-c2ccccc2)c2ccccn12
emission maximum (in CC#N): 494 nm

CC(C)(C)c1ccc(C2=C(c3ccc(-n4c5ccc(C(C)(C)C)cc5c5cc(C(C)(C)C)ccc54)cc3)S(=O)(=O)c3c2sc(-c2ccc(-n4c5ccc(C(C)(C)C)cc5c5cc(C(C)(C)C)ccc54)cc2)c3-c2ccc(C(C)(C)C)cc2)cc1
emission maximum (in C1CCOC1): 555 nm

COc1ccc(-c2ccc(-c3ccc(OC)cc3)cc2)cc1
emission maximum (in C1CCCCC1): 360 nm

CC1=CC(C)=[N+]2C1=C(c1ccccc1)c1c(C)c(-c3cccs3)c(C)n1[B-]2(F)F
emission maximum (in CO): 600 nm
emission maximum (in Cc1ccccc1): 591 nm
emission maximum (in ClCCl): 594 nm

Cc1ccc(C2=C3C=CC=[N+]3[B-](F)(F)n3cccc32)cc1
emission maximum (in C1CCCCC1): 516 nm
emission maximum (in CC#N): 514.5 nm
emission maximum (in CCO): 514.5 nm
emission maximum (in CCOC(C)=O): 514.5 nm
emission maximum (in CO): 513.5 nm
emission maximum (in OCC(F)(F)F): 509.5 nm

CN(C)c1ccc(-c2nc3nccnc3n2-c2ccc(N(C)C)cc2)cc1
emission maximum (in CC#N): 472 nm

Cc1ccccc1C1=C2C=CC(=[N+](C)C)C=[C]2[Ge]([CH3])([CH3])[c]2cc(N(C)C)ccc21
emission maximum (in O): 649 nm

C(=C\c1c2ccccc2cc2ccccc12)/c1ccc(Oc2ccc3ccccc3c2-c2c(Oc3ccc(/C=C/c4c5ccccc5cc5ccccc45)cc3)ccc3ccccc23)cc1
emission maximum (in ClCCl): 486 nm

Brc1cnc(-c2ccncc2)s1
emission maximum (in CO): 396 nm

COC(=O)c1ccc2cc(C#N)c3ccc4ccccc4c3c2c1
emission maximum (in ClC(Cl)Cl): 422 nm

C(=C\c1cc(-c2ccc3ccccc3c2)c(/C=C/c2ccc(N(c3ccccc3)c3ccccc3)cc2)cc1-c1ccc2ccccc2c1)/c1ccc(N(c2ccccc2)c2ccccc2)cc1
emission maximum (in ClCCl): 489 nm

CCCCCC(=O)c1ccc2c3c(sc2c1)-c1ccccc1P3(=O)c1ccccc1 (stereo unspecified)
emission maximum (in ClCCl): 428 nm

COC(=O)c1ccc(/C=C2\C=C(c3ccc(OC)c(OC)c3)NC2=O)cc1
emission maximum (in C1COCCO1): 574 nm

CC(C)(C)c1ccc(-c2c3c(c(-c4ccc(C(C)(C)C)cc4)c4cc5ccccc5cc24)Cc2c(c(-c4ccc(C(C)(C)C)cc4)c4cc5ccccc5cc4c2-c2ccc(C(C)(C)C)cc2)C3)cc1
emission maximum (in ClCCl): 409 nm

COc1ccc(-c2ccc3c(c2)c2cc(-c4ccc(OC)cc4)ccc2n3-c2ccc(C(=O)c3ccc4sc5ccccc5c4c3)cc2)cc1
emission maximum (in Cc1ccccc1): 460.87 nm
emission maximum (in c1cc(-n2c3ccccc3c3ccccc32)cc(-n2c3ccccc3c3ccccc32)c1): 462 nm

C[Si]1(c2ccccc2)C(c2ccc3c(c2)c2ccccc2n3-c2ccccc2)=C(c2ccccc2)C(c2ccccc2)=C1c1ccc2c(c1)c1ccccc1n2-c1ccccc1
emission maximum (in C1CCOC1): 526 nm

CCOC(=O)CSc1nc(-c2ccc(OC)cc2)c(C)c(C#N)c1C#N
emission maximum (in c1ccccc1): 432 nm

Cc1nc(-c2cc(C(F)(F)F)ccc2O)n2c1CCCC2
emission maximum (in ClCCl): 432 nm

CC(=O)OCOC(=O)CN(CC(=O)OCOC(C)=O)c1ccccc1OCCOc1cc(NC(=O)c2ccc3c(c2)C(=O)OC32c3cc(Cl)c(OC(C)=O)cc3Oc3cc(OC(C)=O)c(Cl)cc32)ccc1N(CC(=O)OCOC(C)=O)CC(=O)OCOC(C)=O
emission maximum (in O): 534 nm

COc1ccc(-c2cc3ccc4cc(-c5ccc(OC)cc5)cc5ccc(c2)c3c45)cc1
emission maximum (in C1CCCCC1): 418.86 nm
emission maximum (in C1CCOC1): 416.47 nm
emission maximum (in CC#N): 414.88 nm
emission maximum (in CCCCCC): 417.26 nm
emission maximum (in CCO): 416.27 nm
emission maximum (in CN(C)C=O): 417.86 nm
emission maximum (in CO): 418.06 nm
emission maximum (in ClC(Cl)Cl): 417.61 nm
emission maximum (in ClCCl): 417.26 nm

O=C1C(=c2c(=O)c3c4ccccc4cc4cc5ccccc5c2c43)C(=O)c2ccccc21
emission maximum (in C1CCOC1): 583 nm
emission maximum (in CC#N): 604 nm
emission maximum (in CCCCCC): 556 nm
emission maximum (in Cc1ccccc1): 578 nm
emission maximum (in ClCCl): 599 nm

CNc1cc2nc3cc(Br)c(Br)cc3nc2cc1NC
emission maximum (in CCO): 542 nm

c1ccc(Nc2nc(Nc3ccccc3)nc(Nc3cc4ccc5cccc6ccc(c3)c4c56)n2)cc1
emission maximum (in CC#N): 398 nm
emission maximum (in CCCCOCCCC): 397 nm
emission maximum (in CO): 399 nm

CCCCCCOC(=O)/C=C/C1=CC2=C(c3c(C)cc(C)cc3C)c3cc(/C=C/C(=O)OCCCCCC)cn3[B-](F)(F)[N+]2=C1
emission maximum (in ClCCl): 606 nm
